Results on 30 molecules are retold here after patent US10189782B2, “Derivatives of indole for the treatment of cancer, viral infections and lung diseases” (BIOKINESIS, priority 2012, dated 2019).

pIC50: −log10 of the molar value. Where a name gives a salt, the structure may show the parent alone.

This experiment deals with T1, Human recombinant MKlp2 motor domain1-519, His tagged (Homo sapiens, UniProt O95235).
T1 construct: Human recombinant MKlp2 motor domain1-519, His tagged; His; purchased Cytoskeleton MP05
T1 sequence (O95235 1-519): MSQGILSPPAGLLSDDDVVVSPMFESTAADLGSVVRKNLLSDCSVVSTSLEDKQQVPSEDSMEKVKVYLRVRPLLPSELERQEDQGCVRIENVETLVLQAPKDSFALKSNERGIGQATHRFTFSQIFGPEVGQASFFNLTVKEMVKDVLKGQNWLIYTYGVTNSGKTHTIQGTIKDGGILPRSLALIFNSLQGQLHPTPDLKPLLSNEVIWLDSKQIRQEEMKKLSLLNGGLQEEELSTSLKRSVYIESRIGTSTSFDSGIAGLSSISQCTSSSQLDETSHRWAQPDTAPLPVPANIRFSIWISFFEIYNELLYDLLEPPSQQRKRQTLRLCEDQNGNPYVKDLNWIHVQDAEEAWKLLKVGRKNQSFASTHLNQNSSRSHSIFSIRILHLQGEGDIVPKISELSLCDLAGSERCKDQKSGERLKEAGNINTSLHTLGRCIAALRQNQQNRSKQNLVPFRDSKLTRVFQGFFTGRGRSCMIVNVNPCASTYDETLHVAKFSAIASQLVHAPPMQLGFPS
Put plainly: Microtubule stimulated ATPase activity of the MKlp2 motor domain (Kinesin ELIPA Assay Kit). As to conditions: Table 3, 22° C., read-out: MKIp2 IC50. Type of experiment: biochemical. The protocol:
Evaluation of Inhibitory Effects on the Microtubule Stimulated ATPase Activity of the MKlp2 Motor Domain.
MKlp2 ATPase activity was measured by monitoring real time free phosphate generation using the Kinesin ELIPA Assay Kit. The assay is based upon an absorbance shift (330 nm-360 nm) that occurs when 2-amino-6-mercapto-7-methylpurine ribonucleoside (MESG) is catalytically converted to 2-amino-6-mercapto-7-methylpurine in the presence of inorganic phosphate (Pi). One molecule of Pi will yield one molecule of 2-amino-6-mercapto-7-methylpurine in an essentially irreversible reaction.
All experiments were performed at 22° C.
Condition 1, compound preparation.
The compounds were dissolved in DMSO at 30× the maximum concentration to be tested. […] DMSO solutions were pipetted directly into each well.
Condition 2, reaction's “motor mix”.
The following were mixed sequentially in the specified order at RT to obtain the “motor mix”.
20 mL: 15 mM Pipes-NaOH pH 7.0, 10 mM MgCl2, 30 μM Tx (Buffer 1).
10 mL: 5× MSEG (ELIPA 1 reagent, Cat. # BK051).
10 mL: 2.5 mg/mL porcine brain microtubules (3×10 mg Cat. # MT002-XL resuspended in 12 mL of Buffer 1).
0.5 mL: 100×PNP (ELIPA 2 reagent, cat. # BK051).
Condition 3, reaction initiation.
The motor mix was pipetted into each well to obtain 80% of total volume. The reaction was initiated by adding a 20% of total volume of 5 mM ATP into each well.
The reactions were measured in a SpectraMax M2 (Molecular Devices) set in kinetic mode and 360 nm absorbance wavelength. The start protocol was 5 second rapid circular mixing, 21 readings, 30 seconds apart.

As for `CCOc1ccncc1/C=C(\C#N)c1c[nH]c2ccc(OC)cc12` [Example 2, (Z)-3-(4-ethoxypyridin-3-yl)-2-(5-methoxy-1H-indol-3-yl)acrylonitrile], the pIC50 was 6.52.
With `CN(C)c1ccncc1/C=C(\C#N)c1c[nH]c2ccc(Cl)cc12` [Example 6, (Z)-2-(5-chloro-1H-indol-3-yl)-3-(4-(dimethylamino)pyridin-3-yl)acrylonitrile], the pIC50 is 6.30.
For `CN(C)c1ccncc1/C=C(\C#N)c1c[nH]c2ccc(Cl)cc12` [Example 7, (Z)-2-(5-chloro-1H-indol-3-yl)-3-(4-(dimethylamino)pyridin-3-yl)acrylonitrile, Hydrochloride], the pIC50 was 6.10.
Consider `N#C/C(=C\c1cnccc1Oc1ccccc1)c1c[nH]c2ccc(Cl)cc12` [Example 10, (Z)-2-(5-chloro-1H-indol-3-yl)-3-(4-phenoxypyridin-3-yl)acrylonitrile], for which the pIC50 was 6.52.
As for `N#C/C(=C\c1cnccc1Oc1ccccc1)c1c[nH]c2ccc(Br)cc12` [Example 11, (Z)-2-(5-bromo-1H-indol-3-yl)-3-(4-phenoxypyridin-3-yl)acrylonitrile], the pIC50 is 6.30.
For the molecule `CCOc1ccncc1/C=C(\C#N)c1c[nH]c2ccc(Br)cc12` [Example 13, (Z)-2-(5-bromo-1H-indol-3-yl)-3-(4-ethoxypyridin-3-yl)acrylonitrile], the pIC50 was 7.00.
For the molecule `CC(C)Oc1ccncc1/C=C(\C#N)c1c[nH]c2ccc(Br)cc12` [Example 14, (Z)-2-(5-bromo-1H-indol-3-yl)-3-(4-isopropoxypyridin-3-yl)acrylonitrile], the pIC50 is 6.70.
Regarding `CCSc1ccncc1/C=C(\C#N)c1c[nH]c2ccc(Br)cc12` [Example 16, (Z)-2-(5-bromo-1H-indol-3-yl)-3-(4-(ethylthio)pyridin-3-yl)acrylonitrile], the pIC50 is 6.52.
The figure for `N#C/C(=C\c1cnccc1-c1cccc(Br)c1)c1c[nH]c2ccc(Br)cc12` [Example 17, (Z)-2-(5-bromo-1H-indol-3-yl)-3-(4-(3-bromophenyl)pyridin-3-yl)acrylonitrile] is 6.52.
Consider `N#C/C(=C\c1cnccc1-c1cccc(Br)c1)c1c[nH]c2ccc(Cl)cc12` [Example 18, (Z)-3-(4-(3-bromophenyl)pyridin-3-yl)-2-(5-chloro-1H-indol-3-yl)acrylonitrile], for which the pIC50 was 6.52.
Next, `N#C/C(=C\c1cnccc1Sc1ccccc1)c1c[nH]c2ccc(Br)cc12` [Example 19, (Z)-2-(5-bromo-1H-indol-3-yl)-3-(4-(phenylthio)pyridin-3-yl)acrylonitrile]: 6.52.
In the case of `N#C/C(=C\c1cnccc1SCc1ccccc1)c1c[nH]c2ccc(Br)cc12` [Example 20, (Z)-3-(4-(benzylthio)pyridin-3-yl)-2-(5-bromo-1H-indol-3-yl)acrylonitrile], the pIC50 is 6.70.
Next, `COc1ccc(Sc2ccncc2/C=C(\C#N)c2c[nH]c3ccc(Br)cc23)cc1OC` [Example 21, (Z)-2-(5-bromo-1H-indol-3-yl)-3-(4-((3,4-dimethoxyphenyl)thio)pyridin-3-yl)acrylonitrile]: 6.40.
For `N#C/C(=C\c1cnccc1Oc1ccc(F)cc1)c1c[nH]c2ccc(Br)cc12` [Example 22, (Z)-2-(5-bromo-1H-indol-3-yl)-3-(4-(4-fluorophenoxy)pyridin-3-yl)acrylonitrile], the pIC50 is 7.05.
As to `N#C/C(=C\c1cnccc1Oc1ccc(F)cc1)c1c[nH]c2ccc(Cl)cc12` [Example 23, (Z)-2-(5-chloro-1H-indol-3-yl)-3-(4-(4-fluorophenoxy)pyridin-3-yl)acrylonitrile], the pIC50 is 7.05.
For `N#C/C(=C\c1cnccc1-c1ccc(C(F)(F)F)cc1)c1c[nH]c2ccc(Br)cc12` [Example 25, (Z)-2-(5-bromo-1H-indol-3-yl)-3-(4-(4-(trifluoromethyl)phenyl)pyridin-3-yl)acrylonitrile], the pIC50 is 6.40.
In the case of `N#C/C(=C\c1cnccc1-c1ccc(C(F)(F)F)cc1)c1c[nH]c2ccc(Cl)cc12` [Example 26, (Z)-2-(5-chloro-1H-indol-3-yl)-3-(4-(4-(trifluoromethyl)phenyl)pyridin-3-yl)acrylonitrile], the pIC50 was 6.30.
The figure for `N#C/C(=C\c1cnccc1Sc1ccc(F)cc1)c1c[nH]c2ccc(Cl)cc12` [Example 27, (Z)-2-(5-chloro-1H-indol-3-yl)-3-(4-((4-fluorophenyl)thio)pyridin-3-yl)acrylonitrile] is 6.52; for `N#C/C(=C\c1cnccc1Sc1ccc(F)cc1)c1c[nH]c2ccc(Br)cc12` [Example 28, (Z)-2-(5-bromo-1H-indol-3-yl)-3-(4-((4-fluorophenyl)thio)pyridin-3-yl)acrylonitrile] it is 7.05.
Turning to `N#C/C(=C\c1cnccc1Sc1ccccn1)c1c[nH]c2ccc(Cl)cc12` [Example 30, (Z)-2-(5-chloro-1H-indol-3-yl)-3-(4-(pyridin-2-ylthio)pyridin-3-yl)acrylonitrile], the pIC50 is 6.52.
For the molecule `N#C/C(=C\c1cnccc1Sc1ccccn1)c1c[nH]c2ccc(Br)cc12` [Example 31, (Z)-2-(5-bromo-1H-indol-3-yl)-3-(4-(pyridin-2-ylthio)pyridin-3-yl)acrylonitrile], the pIC50 was 6.40.
Take `N#C/C(=C\c1cnccc1-n1cncn1)c1c[nH]c2ccc(Br)cc12` [Example 32, (Z)-3-(4-(1H-1,2,4-triazol-1-yl)pyridin-3-yl)-2-(5-bromo-1H-indol-3-yl)acrylonitrile]: the pIC50 was 7.22.
Turning to `N#C/C(=C\c1cnccc1-n1cncn1)c1c[nH]c2ccc(Cl)cc12` [Example 33, (Z)-3-(4-(1H-1,2,4-triazol-1-yl)pyridin-3-yl)-2-(5-chloro-1H-indol-3-yl)acrylonitrile], the pIC50 was 7.00.
The figure for `COc1ccncc1/C=C(\C#N)c1c[nH]c2ccc(Cl)cc12` [Example 35, (Z)-2-(5-chloro-1H-indol-3-yl)-3-(4-methoxypyridin-3-yl)acrylonitrile, Hydrochloride] is more than 7.15.
Next, `CN(C)CCSc1ccncc1/C=C(\C#N)c1c[nH]c2ccc(Br)cc12` [Example 36]: 6.52; `N#C/C(=C\c1cc(C#N)ccc1Oc1ccc(F)cc1)c1c[nH]c2ccc(Br)cc12` [Example 37, (Z)-3-(2-(5-bromo-1H-indol-3-yl)-2-cyanovinyl)-4-(4-fluorophenoxy)benzonitrile]: 6.05; `COc1ccc(C#N)cc1/C=C(\C#N)c1c[nH]c2ccc(Cl)cc12` [Example 40, (Z)-3-(2-(5-chloro-1H-indol-3-yl)-2-cyanovinyl)-4-methoxybenzonitrile]: 6.70.
As for `CN(C)c1ccc(C#N)cc1/C=C(\C#N)c1c[nH]c2ccc(Cl)cc12` [Example 41, (Z)-3-(2-(5-chloro-1H-indol-3-yl)-2-cyanovinyl)-4-(dimethylamino)benzonitrile], the pIC50 was 6.40.
The figure for `CCSc1ccc(C#N)cc1/C=C(\C#N)c1c[nH]c2ccc(Cl)cc12` [Example 42, (Z)-3-(2-(5-chloro-1H-indol-3-yl)-2-cyanovinyl)-4-(ethylthio)benzonitrile] is 6.22.
For the molecule `COc1ccncc1/C=C(\C#N)c1c[nH]c2cc(Br)ccc12` [Example 45, (Z)-2-(6-bromo-1H-indol-3-yl)-3-(4-methoxypyridin-3-yl)acrylonitrile], the negative logarithm of the IC50 (pIC50) was 6.70.
